Data from US20220175954A1, “HYPOXIA-INDUCING CRYOGELS” (priority 2019, published 2022).

Columns and labels:
[1] = test system: 4T1 breast cancer cells; assay: Cancer cell viability under chemotherapeutic drugs in blank cryogels or HICs; format: cell-based; details: for IC50: Mus musculus
Procedure: IC50 was calculated using a linear regression in the linear part of each curve (Y=mX+n with Y=50 and X=IC50). Data are representative of n=6 samples per set of conditions.
(§1) Data are representative of n=6 samples per set of conditions.
(§2) The capacity of HICs to prevent cancer cell death when exposed to chemotherapeutic drugs was analyzed. 4T1 breast cancer cells or B16-F10 melanoma cells were cultured in normoxia within blank cryogels or HICs and treated with several concentrations of doxorubicin or cisplatin (0.1-100 μM) for 24 h, 48 h, or 72 h. Both 4T1 (FIGS. 24 and 25) and B16-F10 (FIGS. 26 and 27) cells within blank cryogels were sensitive to doxorubicin treatment. […] HICs induced up to 100-fold increase in cancer cell resistance to cisplatin after 72 h compared to blank cryogels.

[2] = test system: B16-F10 melanoma cells; assay: as above; format: cell-based; details: for IC50: Mus musculus
Procedure: as §1, §2

[3] = after 72 h, stated for 4T1 and B16-F10 together

Compound | IC50 ([1]; 4T1, 24 h, 4T1 cells in HICs, 24 h) [µM] | IC50 ([1]; 4T1, 24 h, 4T1 cells within blank cryogels, 24 h) [µM] | IC50 ([1]; 4T1, 48 h, 4T1 cells in HICs, 48 h) [µM] | IC50 ([1]; 4T1, 48 h, 4T1 cells within blank cryogels, 48 h) [µM] | IC50 ([1]; 4T1, 72 h, 4T1 cells in HICs, 72 h) [µM] | IC50 ([1]; 4T1, 72 h, 4T1 cells within blank cryogels, 72 h) [µM] | IC50 ([2]; B16-F10, 24 h, B16-F10 cells in HICs, 24 h) [µM] | IC50 ([2]; B16-F10, 24 h, B16-F10 cells within blank cryogels, 24 h) [µM] | IC50 ([2]; B16-F10, 48 h, B16-F10 cells in HICs, 48 h) [µM] | IC50 ([2]; B16-F10, 48 h, B16-F10 cells within blank cryogels, 48 h) [µM] | IC50 ([2]; B16-F10, 72 h, B16-F10 cells in HICs, 72 h) [µM] | IC50 ([2]; B16-F10, 72 h, B16-F10 cells within blank cryogels, 72 h) [µM] | increase in cancer cell resistance in HICs compared to blank cryogels [1, 3] | increase in cancer cell resistance in HICs compared to blank cryogels [2, 3]
COc1cccc2c1C(=O)c1c(O)c3c(c(O)c1C2=O)C[C@@](O)(C(=O)CO)C[C@@H]3O[C@H]1C[C@H](N)[C@H](O)[C@H](C)O1 [doxorubicin] | 56.8 | 1.08 | 50.7 | 0.55 | 47.2 | 0.33 | 55.7 | 0.91 | 46.2 | 0.37 | 47.2 | 0.38 | – | –
N.N.[Cl][Pt][Cl] [cisplatin] | – | – | – | – | – | – | – | – | – | – | – | – | up to 100 fold | up to 100 fold
